ChEMBL document CHEMBL3603817, “Potent and Selective Inhibitors of Histone Deacetylase-3 Containing Chiral Oxazoline Capping Groups and a N-(2-Aminophenyl)-benzamide Binding Unit” (J Med Chem, 2015)
Converted amounts (≈) assume the structure as drawn.

Columns and labels:
Format in all cases: physicochemical
[1] = Distribution coefficient, log D of the compound by HPLC method; conditions: octanol/water
[2] = Solubility by CLND method
[3] = Lipophilicity, log P of the compound; conditions: octanol/water

logD [1]	solubility kinetic [2] [µg/mL]	logP [3]	Compound
1.92	≥ 70	3.46	Nc1ccccc1NC(=O)c1ccc(CNC2=N[C@@H](c3ccccc3)CN2)cc1
3.49	116 (≈ 288 µM)	4.31	Nc1ccccc1NC(=O)c1ccc(CSC2=N[C@@H](c3ccccc3)CN2)cc1
3.19	108 (≈ 267 µM)	3.32	Nc1ccccc1NC(=O)c1ccc(CSC2=N[C@@H](c3cccnc3)CO2)cc1
5.41	31 (≈ 74.2 µM)	5.67	Nc1ccccc1NC(=O)c1ccc(CSC2=N[C@@H](Cc3ccccc3)CO2)cc1
3.1	–	3.74	Nc1ccccc1NC(=O)c1ccc(CNC2=N[C@@H](c3ccccc3)CO2)cc1
3.09	≥ 151	3.76	Nc1ccccc1NC(=O)c1ccc(CNC2=N[C@H](c3ccccc3)CO2)cc1
–	147 (≈ 363 µM)	3.97	Nc1ccccc1NC(=O)c1ccc(CNC2=NC(c3ccc(F)cc3)CO2)cc1 (stereo not drawn)
3.42	≥ 131	3.84	Nc1ccccc1NC(=O)c1ccc(CNC2=NC(c3cccc(F)c3)CO2)cc1 (stereo not drawn)
4.54	8 (≈ 17.6 µM)	4.72	Nc1ccccc1NC(=O)c1ccc(CNC2=NC(c3ccc(C(F)(F)F)cc3)CO2)cc1 (stereo not drawn)
1.74	≥ 130	2.13	Nc1ccccc1NC(=O)c1ccc(CNC2=N[C@@H](c3ccc(O)cc3)CO2)cc1
1.71	≥ 124	1.78	Nc1ccccc1NC(=O)c1ccc(CNC2=N[C@@H](c3cccnc3)CO2)cc1
2.86	≥ 148	4.15	Nc1ccccc1NC(=O)c1ccc(CNC2=N[C@@H](Cc3ccccc3)CO2)cc1
2.79	98 (≈ 254 µM)	3.58	Nc1ccccc1NC(=O)c1ccc(CNC2=NC[C@@H](c3ccccc3)O2)cc1
2.99	77 (≈ 199 µM)	3.84	Nc1ccccc1NC(=O)c1ccc(CNC2=NC[C@H](c3ccccc3)O2)cc1
5.29	7 (≈ 15.1 µM)	5.59	Nc1ccccc1NC(=O)c1ccc(CNC2=NC(c3ccccc3)(c3ccccc3)CO2)cc1
5.01	6 (≈ 13 µM)	5.41	Nc1ccccc1NC(=O)c1ccc(CNC2=N[C@@H](c3ccccc3)[C@H](c3ccccc3)O2)cc1
4.54	73 (≈ 158 µM)	5.01	Nc1ccccc1NC(=O)c1ccc(CNC2=N[C@H](c3ccccc3)[C@H](c3ccccc3)O2)cc1
0.9	≥ 142	0.95	Nc1ccccc1NC(=O)c1ccc(CNC2=N[C@@H](Cc3c[nH]cn3)CO2)cc1
0.89	≥ 158	0.93	Nc1ccccc1NC(=O)c1ccc(CNC2=N[C@H](Cc3c[nH]cn3)CO2)cc1
2.96	107 (≈ 270 µM)	2.96	Nc1ccccc1NC(=O)c1ccc(CNc2nccc(-c3cccnc3)n2)cc1 [MOCETINOSTAT]
